Reference: patent publication US20240307390A1, “METHODS AND COMPOSITIONS FOR CANCER TREATMENT BY TARGETING AXL SIGNALING” (Sanford Burnham Prebys Medical Discovery Institute, priority 2023, published 2024)

Columns and labels:
[1] = tested on: mesenchymal and immune-stimulatory genes, cell morphology; assay: Gene expression and cell morphology after EYA2 Tyr phosphatase inhibitor treatment; type: cell-based; conditions: similar to EYA2 KD (flat, cuboidal morphology, decreased mesenchymal, induced immune-stimulatory genes); data not shown
From the text: EYA2 KD induced a flat, cuboidal morphology, decreased mesenchymal gene expression, and induced immune-stimulatory genes (FIGS. 2G-2I), phenocopying FBXO7 KD. […] Expression of WT EYA2, but not Tyr phosphatase mutant EYA2D274N or SIX binding mutant EYA2A532R, largely rescued the decreased mesenchymal and increased immune-stimulatory genes in FBXO7 KD cells (data not shown).

GAS6 in MDA-MB-231 cells = assay: GAS6 expression and protein in MDA-MB-231 cells; type: cell-based, human
From the text: (§1) FIGS. 4E and 4F represent ChIP analysis of Flag-EYA2 (FIG. 4E) and Flag-SIX1 (FIG. 4F) binding Gas6 promoter in MDA-MB-231 cells transfected with the indicated siRNAs. FIGS. 4G-4I show GAS6 expression in MCF7 cells transfected with indicated vectors (FIG. 4G) and MDA-MB-231 cells expressing indicated shRNAs (FIG. 4H) or treated with vehicle or EYA2i (FIG. 4I). FIGS. 4J and 4K show immunoblots of AXL signaling proteins in MDA-MB-231 cells transfected with control or FBXO7 siRNA (FIG. 4J) or treated with vehicle or EYA2i (FIG. 4K).
To determine how the FBXO7/EYA2-SCFFBXW7 axis maintains mesenchymal and immune evasion phenotypes of cancer cells, chromatin IP sequencing (ChIP-seq) profiles of EYA2 binding in control and FBXO7 KD cells (FIGS. 4A and 4B) were compared. FBXO7 KD decreased EYA2 binding at various genomic regions, including promoters, exons, and introns (data not shown). […] GAS6 was chosen for further analysis because of the link between AXL and mesenchymal phenotypes in TNBC cells. ChIP confirmed that EYA2 and SIX1 bound the Gas6 promoter and binding was diminished by KD of FBXO7 or co-transcriptional counterpart (FIGS. 4E and 4F). EYA2-2A also bound the Gas6 promoter (data not shown), indicating independence of CPD phosphorylation. Further, FBXO7 bound the Gas6 promoter and FBXO7 or ΔF-FBXO7 expression stimulated EYA2 binding (data not shown). […]

AXL signaling = assay: Immunoblots of AXL signaling proteins in MDA-MB-231 cells; type: cell-based, human; conditions: FIG. 4K
From the text: as §1
In line with the role of GAS6 as an AXL ligand, FBXO7 KD decreased total AXL and phospho-AXLTyr702 and decreased AXL surface expression (FIGS. 4J and 4M), indicating inhibition of AXL signaling. […] GAS6 expression rescued the decreased total and phospho-AXLTyr702 in FBXO7 KD cells (FIG. 4L). Consistent with a role of SCFFBXW7 in antagonizing FBXO7 functions, FBXW7 KD rescued the decreased GAS6 and attenuated AXL signaling in FBXO7 KD cells (data not shown). […] Expression of proinflammatory cytokine suppressor and AXL signaling effector SOCS1 partially rescued the increased IFNα/β, CXCL9/10, and HLA-A/B induced by FBXO7 KD (FIG. 4O). Further, GAS6 expression rescued the increased HLA-A/B/C surface expression on FBXO7 KD cells (data not shown).

cancer cells = assay: Cancer cell viability upon doxorubicin treatment; type: cell-based; conditions: partially rescued by GAS6 expression, FIG. 5H
From the text: FIGS. 5A and 5B show a gap closure assay of control, FBXO7 KD, and FBXO7 KD+GAS6 MDA-MB-231 (FIG. 5A) and BT-549 (FIG. 5B) cells. FIGS. 5C and 5D show the migration (FIG. 5C) and invasion (FIG. 5D) of indicated control, FBXO7 KD, and FBXO7 KD+GAS6 cells. […] FIGS. 5G and 5H show viabilities of indicated control, FBXO7 KD, or FBXO7 KD+GAS6 (FIG. 5G) or vehicle or EYA2i treated (FIG. 5H) cells upon doxorubicin treatment.
FBXO7 KD diminished mesenchymal cancer cell migration and invasion in in vitro assays (data not shown). These FBXO7 KD effects were largely rescued by GAS6 expression (FIGS. 5A-5D). […] Again, these phenotypes were largely rescued by GAS6 expression (FIGS. 5E and 5F). […] Consistent with an antagonistic role of SCFFBXW7, FBXW7 KD partially rescued the reduced migration of FBXO7 KD cells and enhanced EYA2i sensitivity (data not shown).

[2] = tested on: MDA-MB-231-luc breast tumors; assay: Orthotopic MDA-MB-231-luc breast tumors in immunocompromised mice; type: in vivo; conditions: partially rescued by GAS6 expression
From the text: (§2) FIGS. 6A and 6B show growth curves (FIG. 6A) and images (FIG. 6B) of control, FBXO7 KD, and FBXO7 KD+GAS6 MDA-MB-231 breast tumors in immunocompromised mice. […] FIGS. 6E and 6F show growth curves (FIG. 6E) and images (FIG. 6F) of control and GAS6-expressing MDA-MB-231-luc breast tumors in immunocompromised mice treated with vehicle or EYA2i.

4T1-luc breast tumors = assay: 4T1-luc TNBC tumors in syngeneic immunocompetent mice; type: in vivo
Procedure: as §2
Immunocompetent mice bearing 4T1-luc TNBCs were treated with vehicle or EYA2i and isotype IgG (control) or anti-PD-1 antibody (FIG. 6H).

FBXO7-EYA2 binding = assay: Co-IP of FBXO7-EYA2 binding in treated cells; type: cell-based; conditions: treatment of cells; data not shown
Procedure: To gain insight into how FBXO7 maintains mesenchymal phenotypes and immune evasion of cancer cells, protein mass spectrometry was conducted to identify putative interacting proteins (FIG. 2A). Eyes Absent Homolog 2 (EYA2), a co-activator of the SIX family of homeobox transcription factors with Tyr phosphatase activity, was one of the most abundant FBXO7-interacting proteins (FIG. 2B). Immunoprecipitation (IP) and in vitro pull-down assays confirmed that FBXO7 interacted with EYA2, but not directly with co-transcriptional partner SIX1 (FIGS. 2C and 2D). EYA2's transactivation domain (AD, aa1-252) but not EYA domain (ED, aa253-538), which interacts with SIX proteins, was required for FBXO7 interaction (FIG. 2E). FBXO7's F-box motif was dispensable for EYA2 interaction (FIG. 2F).
SCFFBXW7 substrate recognition is generally triggered by GSK3β-mediated phosphorylation of the substrate CPD. Recombinant SCFFBXW7 bound a synthetic peptide corresponding to phosphorylated EYA2 CPD (FIG. 3I). […] To determine if EYA2 degradation was regulated by GSK3β, we first confirmed endogenous GSK3 β interacted with EYA2 in vivo by IP (data not shown). […] GSK3β stimulated SCFFBXW7-mediated polyubiquitylation of EYA2 in in vitro ubiquitylation reactions (FIG. 3J). […] Therefore, EYA2 is degraded by SCFFBXW7 in a GSK3β-dependent manner.

EYA2 = EYA2 steady-state level, stability and polyubiquitylation in cells; type: cell-based; conditions: data not shown
From the text: Input proteins are shown. […] FIG. 3C represents a putative EYA2 CPD motif across species and compared with other SCF^FBXW7 substrates. […] FIGS. 3F and 3G represent WT and Flag-EYA2-2A stability in MDA-MB-231 cells (FIG. 3F) and endogenous EYA2 in WT and Fbxw7 KO HCT116 cells (FIG. 3G). […] FIG. 3K represents flag-EYA2 stability in MDA-MB-231 cells treated with vehicle (DMSO) or GSK3βi. […] Input proteins shown. […] FIG. 3O represents a model of FBXO7 inhibition of GSK3β-SCFFBXW7-mediated degradation of EYA2.
FBXW7 expression enhanced EYA2 K48-linked but not K63-linked polyubiquitylation (FIG. 3D), indicating SCFFBXW7 regulated EYA2 degradation. IP confirmed EYA2's CPD was required for FBXW7 binding (FIG. 3E). In contrast, FBXO7-EYA2 binding was independent of EYA2's CPD (data not shown). […] In isogenic WT and Fbxw7 knockout (KO) cell lines, the steady-state level and stability of EYA2 increased and polyubiquitylation decreased in the absence of Fbxw7 (FIGS. 3G, 3H).
SCFFBXW7 substrate recognition is generally triggered by GSK3β-mediated phosphorylation of the substrate CPD. Recombinant SCFFBXW7 bound a synthetic peptide corresponding to phosphorylated EYA2 CPD (FIG. 3I). […] To determine if EYA2 degradation was regulated by GSK3β, we first confirmed endogenous GSK3 β interacted with EYA2 in vivo by IP (data not shown). […]

For `O=C(N/N=C/c1ccc(Sc2ccccn2)o1)c1cccc(F)c1` [EYA2i, MLS000544460], the “effects on gene expression and cell morphology” value [1] was “induced similar effects on gene expression and cell morphology”, the “total and secreted GAS6 protein” value (GAS6 in MDA-MB-231 cells; data not shown) was “decreased total and secreted GAS6 protein” and the GAS6 expression (GAS6 in MDA-MB-231 cells; mesenchymal MDA-MB-231 cells, FIG. 4I) was “decreased GAS6 expression”. For the same compound, the AXL signaling (AXL signaling) was “suppressed AXL signaling”, the “sensitivity of cancer cells to doxorubicin treatment” value (cancer cells) was “sensitized cancer cells to doxorubicin treatment” and the lung metastases ([2]; MDA-MB-231-luc) was “diminished”. For the same compound, the “tumor cell autonomous growth” value ([2]; orthotopic MDA-MB-231-luc breast tumors) was “diminished”, the “intertumoral infiltration of CD8+T and NK cells” value (4T1-luc breast tumors; flow cytometric and IHC analyses of 4T1-luc tumors) was “stimulated” and the “H-2Kd MHC class I alloantigen surface expression on 4T1-luc tumor cells” value (4T1-luc breast tumors; flow cytometry, FIG. 6L) was “increased”. For the same compound, the “4T1-luc tumor growth / antitumor response” value (4T1-luc breast tumors; immunocompetent mice, FIGS. 6H and 6I) was “modestly reduced”.
With `NS(=O)(=O)OC[C@@H]1C[C@@H](n2ccc3c(N[C@H]4CCc5ccccc54)ncnc32)C[C@@H]1O` [MLN4924] the FBXO7-EYA2 binding (FBXO7-EYA2 binding) was “did not disrupt FBXO7-EYA2 binding” and the EYA2 levels (EYA2) was “increased EYA2 levels”.
